Data from US5965787A, “HLA-DRBI peptides with specific binding affinity for HLA-DQ molecules: prevention and treatment of rheumatoid arthritis” (Mayo Foundation for Medical Education and Research, priority 1995, dated 1999).

System: lymph node cells from B10.RQB3-DRB1*1502 positive and negative littermates (H-2A^q)
Experiment: T cell proliferation assay, lymph node cells of immunized B10.RQB3 mice
Format: cell-based, mouse
Conditions: for T cell response of DRB1*1502 transgene positive animals compared with negative littermates / B10.RQB3 controls: mice immunized with 200 μg HII 250-270 in CFA, in vitro HII 250-270 4, 20, 100 μg/ml, PPD 20, LPS 40, Con A 10 μg/ml, FIG. 2

| Substance | T cell response of DRB1*1502 transgene positive animals compared with negative littermates / B10.RQB3 controls | mean cpm of lymph node cells challenged in vitro (positive control of the DRB1 peptide proliferation assay) |
| --- | --- | --- |
| Concanavalin A [Con A] | similar | > 100,000 cpm |
| lipopolysaccharide [LPS] | similar | – |
